Reference: article PMC11974249 (Drug metabolism and pharmacokinetics, 2024)

Key:
[1] = Depletion of parent compound over 90 min in fresh or thermally-inactivated HLC; type: in vitro ADME, human
plasma proteins = experiment: Fraction unbound to plasma proteins by ultrafiltration; type: in vitro ADME; details: from fu.p
[2] = as above; type: in vitro ADME; details: plasma protein in sodium phosphate buffer, pH 7.4
human recombinant CES2 = molecular target: T1, human recombinant CES2 (Homo sapiens, UniProt O00748); experiment: Arecoline hydrolysis by human recombinant CES2; type: in vitro ADME; details: 5–40 min, CES protein 0.1–0.4 mg/ml
T1 sequence (O00748 27-559): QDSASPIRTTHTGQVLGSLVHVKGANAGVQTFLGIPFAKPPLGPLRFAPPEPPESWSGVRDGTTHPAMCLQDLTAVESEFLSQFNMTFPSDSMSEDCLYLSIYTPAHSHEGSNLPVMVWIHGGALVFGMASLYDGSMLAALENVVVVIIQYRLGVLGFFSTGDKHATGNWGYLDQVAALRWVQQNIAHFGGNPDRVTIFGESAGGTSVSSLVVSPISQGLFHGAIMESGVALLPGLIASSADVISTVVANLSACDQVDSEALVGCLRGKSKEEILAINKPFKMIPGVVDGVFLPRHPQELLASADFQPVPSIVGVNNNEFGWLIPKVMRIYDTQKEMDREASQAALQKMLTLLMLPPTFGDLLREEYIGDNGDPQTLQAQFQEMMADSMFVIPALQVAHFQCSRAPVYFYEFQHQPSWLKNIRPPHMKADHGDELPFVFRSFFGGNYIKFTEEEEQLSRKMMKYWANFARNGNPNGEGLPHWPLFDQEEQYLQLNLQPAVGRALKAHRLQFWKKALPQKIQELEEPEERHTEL

human recombinant CES1 = molecular target: T2, human recombinant CES1 (Homo sapiens, UniProt P23141); experiment: Arecoline hydrolysis by human recombinant CES1; type: in vitro ADME; details: 5–40 min, CES protein 0.1–0.4 mg/ml
T2 sequence (P23141 18-567): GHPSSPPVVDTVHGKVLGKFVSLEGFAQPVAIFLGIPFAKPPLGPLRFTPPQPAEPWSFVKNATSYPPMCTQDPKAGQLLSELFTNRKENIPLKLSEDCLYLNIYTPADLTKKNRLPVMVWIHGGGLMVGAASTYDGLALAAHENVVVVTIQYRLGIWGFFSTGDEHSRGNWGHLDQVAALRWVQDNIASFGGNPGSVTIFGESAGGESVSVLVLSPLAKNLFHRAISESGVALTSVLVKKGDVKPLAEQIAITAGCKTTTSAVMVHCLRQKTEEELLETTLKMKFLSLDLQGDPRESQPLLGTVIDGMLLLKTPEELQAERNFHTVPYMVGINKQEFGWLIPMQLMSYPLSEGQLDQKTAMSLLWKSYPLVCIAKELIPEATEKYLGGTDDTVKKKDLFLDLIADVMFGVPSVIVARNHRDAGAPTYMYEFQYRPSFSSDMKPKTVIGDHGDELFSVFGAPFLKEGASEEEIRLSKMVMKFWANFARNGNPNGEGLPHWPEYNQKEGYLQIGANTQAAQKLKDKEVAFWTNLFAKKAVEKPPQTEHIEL

[3] = Arecoline hydrolysis in human intestinal microsomes and cytosol; type: in vitro ADME
[4] = Enzyme kinetics of hydrolysis; type: in vitro ADME, human; details: for Vmax: HLC 0.2 mg/ml, 15 min, 37 °C, rate of carboxylate metabolite formation; for Km at 15 min / CLint scaled / microsomal CLint: both, human, pH 7.4; for Km at 15 min: human liver cytosol (pooled); for CLint scaled / microsomal CLint: human liver cytosol
[5] = Enzyme kinetics of hydrolysis; type: in vitro ADME, human; details: for EH: hepatic extraction ratio; for ClH: well-stirred model, Q 21 ml/min/kg; for Km at 15 min / CLint scaled / microsomal CLint: both, human, pH 7.4; for Km at 15 min: human liver microsomes (pooled); for CLint scaled / microsomal CLint: human liver microsomes
[6] = mouse liver homogenate, cited from earlier work
[7] = subjects with Alzheimer's disease treated with arecoline; cited from earlier work
[8] = Depletion of parent compound over 90 min in fresh or thermally-inactivated HLM; type: in vitro ADME, human; details: for parent level remaining: at 90 min
[9] = system: arecoline hydrolase activity in HLM; experiment: Reaction phenotyping with esterase inhibitors in HLM; type: biochemical, human; details: HLM 0.2 mg/ml, arecoline 25 μM, 15 min; loperamide 1 μM, digitonin 20 μM, ethanol 41 mM, BNPP 10 μM, BW284c51 25 μM, ethopropazine 1 μM, vinblastine 10 μM
[10] = system: arecoline hydrolase activity in HLC; experiment: Reaction phenotyping with esterase inhibitors in HLC; type: biochemical, human; details: HLC 0.2 mg/ml, arecoline 25 μM, 15 min; inhibitor concentrations as in HLM
[11] = both, human, human liver cytosol, pH 7.4
[12] = both, human, human liver microsomes, pH 7.4

SMILES: COC(=O)C1=CCCN(C)C1 [arecoline]
- arecoline concentration remaining in HLC samples compared to HLM samples ([1]; at 90 min, initial arecoline 10 μM): approximately 12.8 fold
- half-life at 10 μM [1, 11]: 97 min
- half-life at 100 μM [1, 11]: 99.8 min
- half-life at 1000 μM [1, 11]: 126 min
- amount available for distribution to peripheral tissues (plasma proteins): ~ 98%
- amount predicted to bind plasma proteins (plasma proteins): ~ 2%
- fraction unbound at 15 min [2]: 0.978
- hydrolysis by CES2 (human recombinant CES2): no hydrolysis
- hydrolysis by CES1 (human recombinant CES1): sub-stantial hydrolysis
- arecoline hydrolysis in intestinal sub-cellular fractions [3]: no arecoline hydrolysis
- Vmax [4]: 118 nmol/min/mg protein
- Km at 15 min [4]: 9.11 mM
- CLint scaled [4]: 11.6 mL/min/kg
- microsomal CLint [4]: 12.9 µL/min/mg
- EH ([5]; HLM): 0.733
- ClH ([5]; HLM): 15.4 mL/min/kg
- Km at 15 min [5]: 8.68 mM
- CLint scaled [5]: 57.8 mL/min/kg
- microsomal CLint [5]: 90.3 µL/min/mg
- extraction ratio class ([5]; from EH in HLM): high (> 0.7)
- depletion ([6]; 30 min incubation): ~100%
- maximum rate of arecoline depletion [6]: 4.7 nmol/min/mg protein
- average elimination T1/2 in plasma [7]: 10.5 min
- parent level remaining ([8]; HLM): 5.6 % control
- half-life at 10 μM [8, 12]: 15.7 min
- half-life at 100 μM [8, 12]: 16.6 min
- half-life at 1000 μM [8, 12]: 17.2 min

SMILES: CCN(CC)C(C)CN1c2ccccc2Sc2ccccc21 (centres unmarked) [ethopropazine]
- percent activity of arecaidine formation compared to control [9]: 102%
- change in mean percent activity of arecoline hydrolase compared to control [10]: no significant change

SMILES: CN(C)C(=O)C(CCN1CCC(O)(c2ccc(Cl)cc2)CC1)(c1ccccc1)c1ccccc1 [loperamide]
- percent activity of arecaidine formation compared to control [9]: 100.2%
- change in mean percent activity of arecoline hydrolase compared to control [10]: no significant change

SMILES: CCO [ethanol]
- percent activity of arecaidine formation compared to control [9]: 44.6%
- change in mean percent activity of arecoline hydrolase compared to control [10]: significant reductions

SMILES: C[C@@H]1CC[C@@]2(OC1)O[C@H]1[C@@H](O)[C@H]3[C@@H]4CC[C@H]5C[C@@H](O[C@@H]6O[C@H](CO)[C@H](O[C@@H]7O[C@H](CO)[C@@H](O)[C@H](O[C@@H]8OC[C@@H](O)[C@H](O)[C@H]8O)[C@H]7O[C@@H]7O[C@H](CO)[C@H](O)[C@H](O[C@@H]8O[C@H](CO)[C@@H](O)[C@H](O)[C@H]8O)[C@H]7O)[C@H](O)[C@H]6O)[C@H](O)C[C@]5(C)[C@H]4CC[C@]3(C)[C@H]1[C@@H]2C [digitonin]
- percent activity of arecaidine formation compared to control [9]: 70%
- change in mean percent activity of arecoline hydrolase compared to control [10]: significant reductions

SMILES: C=CC[N+](C)(C)c1ccc(CCC(=O)CCc2ccc([N+](C)(C)CC=C)cc2)cc1.[Br-].[Br-] [BW284c51, 1,5-Bis(4-allyldimethylammoniumphenyl)pentan-3-one dibromide]
- percent activity of arecaidine formation compared to control [9]: 103%
- change in mean percent activity of arecoline hydrolase compared to control [10]: no significant change

SMILES: COC(=O)C1=CCCNC1 [guvacoline]
- depletion over time ([1]; HLC, all tested concentrations, data not shown): only minimal depletion
- fraction unbound at 15 min [2]: 0.998
- Vmax [4]: 14.4 nmol/min/mg protein
- Km at 15 min [4]: 27.8 mM
- CLint scaled [4]: 0.466 mL/min/kg
- microsomal CLint [4]: 0.518 µL/min/mg
- ClH less compared to arecoline ([5]; HLM): 96%
- Clint.invivo less compared to arecoline ([5]; HLM): 99%
- EH less compared to arecoline ([5]; HLM): 96%
- Vmax less compared to arecoline ([5]; HLM): 96%
- Vmax ([5]; HLM 0.2 mg/ml, 15 min, 37 °C, rate of carboxylate metabolite formation): 35 nmol/min/mg protein
- EH ([5]; HLM): 0.0306
- ClH ([5]; HLM): 0.643 mL/min/kg
- Km at 15 min [5]: 34.3 mM
- CLint scaled [5]: 0.654 mL/min/kg
- microsomal CLint [5]: 1.02 µL/min/mg
- depletion over time ([8]; HLM, all concentrations (0.01, 0.1, 1.0 mM), 90 min): only minimal depletion
- parent level remaining ([8]; HLM): 98 % control

SMILES: O=[N+]([O-])c1ccc(OP(=O)(O)Oc2ccc([N+](=O)[O-])cc2)cc1 [BNPP, bis(4-nitrophenyl)-phosphate]
- percent activity of arecaidine formation compared to control [9]: 14.4%
- change in mean percent activity of arecoline hydrolase compared to control [10]: significant reductions

SMILES: CC[C@]1(O)C[C@@H]2CN(CCc3c([nH]c4ccccc34)[C@@](C(=O)OC)(c3cc4c(cc3OC)N(C)[C@H]3[C@@](O)(C(=O)OC)[C@H](OC(C)=O)[C@]5(CC)C=CCN6CC[C@]43[C@@H]65)C2)C1 [vinblastine]
- percent activity of arecaidine formation compared to control [9]: 100%
- change in mean percent activity of arecoline hydrolase compared to control [10]: no significant change
